Laboratory results reported in ChEMBL document CHEMBL1201862, “PubChem BioAssay data set” (2004).
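The compound was tested at five concentrations on cells cultured in 96-well plates, with a 48-hour exposure period. GI50: concentration for 50% inhibition of growth.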 The source made the active and inactive calls. No stated cut-off is given here; in the data, active = GI50 up to about 1.1 µM and inactive = higher.

Assays:
Test in all cases: NCI anticancer screen, dose series, 48 h
[1] = system: COLO 205
[2] = system: EKVX
[3] = system: HOP-62
[4] = system: Hs-578T
[5] = system: IGROV-1
[6] = system: M14
[7] = system: MCF7
[8] = system: MDA-N
[9] = system: MOLT-4
[10] = system: NCI-H226
[11] = system: NCI-H23
[12] = system: OVCAR-4
[13] = system: OVCAR-8
[14] = system: RPMI-8226
[15] = system: RXF 393
[16] = system: SK-MEL-5
[17] = system: SN12C
[18] = system: SNB-75
[19] = system: SR
[20] = system: T47D

SMILES	GI50 [1]	GI50 [2]	GI50 [3]	GI50 [4]	GI50 [5]	GI50 [6]	GI50 [7]	GI50 [8]	GI50 [9]	GI50 [10]	GI50 [11]	GI50 [12]	GI50 [13]	GI50 [14]	GI50 [15]	GI50 [16]	GI50 [17]	GI50 [18]	GI50 [19]	GI50 [20]
CC(C)(C)CC(C)(C)c1ccc(O)c(C[N+](C)(C)[O-])c1	60.3 µM (inactive)	> 100 µM (inactive)	> 100 µM (inactive)	65.6 µM (inactive)	> 100 µM (inactive)	> 100 µM (inactive)	80 µM (inactive)	> 100 µM (inactive)	53.6 µM (inactive)	> 100 µM (inactive)	> 100 µM (inactive)	63.5 µM (inactive)	> 100 µM (inactive)	62.2 µM (inactive)	> 100 µM (inactive)	58.9 µM (inactive)	> 100 µM (inactive)	91.2 µM (inactive)	64.9 µM (inactive)	68.2 µM (inactive)
O=C1CSC2(CC(/C=C/c3cccc(Br)c3)=NN2c2cccc(S(=O)(=O)O)c2)N1c1nc2ccccc2s1 (stereo not given)	> 100 µM (inactive)	> 100 µM (inactive)	> 100 µM (inactive)	> 100 µM (inactive)	58.6 µM (inactive)	> 100 µM (inactive)	65.6 µM (inactive)	> 100 µM (inactive)	> 100 µM (inactive)	> 100 µM (inactive)	> 100 µM (inactive)	> 77.8 µM (inactive)	> 79.8 µM (inactive)	25.5 µM (inactive)	> 100 µM (inactive)	> 100 µM (inactive)	> 100 µM (inactive)	> 100 µM (inactive)	41.5 µM (inactive)	38.5 µM (inactive)
CC1(C)OC(=S)N(c2ccccc2)C12C=Cc1cc3ccccc3cc1O2 (stereo not given)	> 100 µM (inactive)	> 100 µM (inactive)	> 100 µM (inactive)	> 100 µM (inactive)	6.28 µM (inactive)	> 100 µM (inactive)	> 100 µM (inactive)	> 100 µM (inactive)	> 100 µM (inactive)	> 100 µM (inactive)	> 100 µM (inactive)	> 100 µM (inactive)	> 100 µM (inactive)	92 µM (inactive)	> 100 µM (inactive)	> 100 µM (inactive)	> 100 µM (inactive)	> 100 µM (inactive)	9.46 µM (inactive)	> 100 µM (inactive)
CC(C)[Si](OC/C(=C/COC(C)(C)C)[C@H]1CC=C(C(=O)c2ccccc2N2CN(C)C(=O)N(C)C2)C1)(C(C)C)C(C)C	15.7 µM (inactive)	15.9 µM (inactive)	16 µM (inactive)	2.6 µM (inactive)	12.1 µM (inactive)	12.2 µM (inactive)	4.47 µM (inactive)	2.18 µM (inactive)	0.366 µM (active)	14.6 µM (inactive)	15.2 µM (inactive)	13.8 µM (inactive)	5.55 µM (inactive)	6.05 µM (inactive)	4.02 µM (inactive)	9.95 µM (inactive)	12.4 µM (inactive)	14.1 µM (inactive)	2.14 µM (inactive)	7.73 µM (inactive)
CC(C)/C(Cl)=N/OC(=O)Nc1ccc(F)c(Cl)c1	1.77 µM (inactive)	2.07 µM (inactive)	17.6 µM (inactive)	21.6 µM (inactive)	12.9 µM (inactive)	3.23 µM (inactive)	6.64 µM (inactive)	3.92 µM (inactive)	1.94 µM (inactive)	16.6 µM (inactive)	14.2 µM (inactive)	8.49 µM (inactive)	17.4 µM (inactive)	1.87 µM (inactive)	12.9 µM (inactive)	13.1 µM (inactive)	1.76 µM (inactive)	17.8 µM (inactive)	1.56 µM (inactive)	5.11 µM (inactive)
O=C1CSC(c2cc3cc(Br)ccc3nc2Cl)N1c1ccc(F)c(Cl)c1 (stereo not given)	> 50 µM (inactive)	25.1 µM (inactive)	> 50 µM (inactive)	> 50 µM (inactive)	18.6 µM (inactive)	> 50 µM (inactive)	18.9 µM (inactive)	48.3 µM (inactive)	11.1 µM (inactive)	43.5 µM (inactive)	> 50 µM (inactive)	> 50 µM (inactive)	> 50 µM (inactive)	18.1 µM (inactive)	> 50 µM (inactive)	> 50 µM (inactive)	> 50 µM (inactive)	> 50 µM (inactive)	12.7 µM (inactive)	31.4 µM (inactive)
COc1cc2[nH]c(=O)[nH]c2c2c(C)c[nH]c12	> 100 µM (inactive)	> 100 µM (inactive)	> 100 µM (inactive)	> 100 µM (inactive)	> 100 µM (inactive)	> 100 µM (inactive)	> 100 µM (inactive)	> 100 µM (inactive)	> 100 µM (inactive)	> 100 µM (inactive)	> 100 µM (inactive)	> 100 µM (inactive)	> 100 µM (inactive)	> 100 µM (inactive)	> 100 µM (inactive)	> 100 µM (inactive)	> 100 µM (inactive)	> 100 µM (inactive)	> 100 µM (inactive)	> 100 µM (inactive)
C/C(=N\Nc1nc2cc(Cl)ccc2s1)c1ccccn1	0.09 µM (active)	0.129 µM (active)	0.904 µM (active)	2.89 µM (inactive)	0.127 µM (active)	0.443 µM (active)	0.0867 µM (active)	1.73 µM (inactive)	0.0346 µM (active)	0.32 µM (active)	0.403 µM (active)	0.39 µM (active)	0.177 µM (active)	0.264 µM (active)	1.99 µM (inactive)	0.428 µM (active)	0.372 µM (active)	1.72 µM (inactive)	0.228 µM (active)	0.402 µM (active)
Cc1cc(NS(=O)(=O)c2ccc(NC(=O)c3ccc4nc5ccccc5c(Nc5ccc(S(=O)(=O)Nc6cc(C)on6)cc5)c4c3)cc2)no1	> 50 µM (inactive)	> 50 µM (inactive)	> 50 µM (inactive)	> 50 µM (inactive)	> 50 µM (inactive)	> 50 µM (inactive)	> 50 µM (inactive)	> 50 µM (inactive)	> 50 µM (inactive)	> 50 µM (inactive)	> 50 µM (inactive)	> 50 µM (inactive)	> 50 µM (inactive)	> 50 µM (inactive)	> 50 µM (inactive)	> 50 µM (inactive)	> 50 µM (inactive)	> 50 µM (inactive)	> 50 µM (inactive)	> 50 µM (inactive)
OCCN(/N=C\c1ccc2ccccc2c1)C1=NCCN1	17.9 µM (inactive)	40.5 µM (inactive)	42.6 µM (inactive)	36.1 µM (inactive)	35.1 µM (inactive)	18.6 µM (inactive)	36.1 µM (inactive)	17.2 µM (inactive)	18.2 µM (inactive)	12.9 µM (inactive)	27.7 µM (inactive)	30.8 µM (inactive)	48.4 µM (inactive)	28.8 µM (inactive)	11.4 µM (inactive)	18.3 µM (inactive)	25.3 µM (inactive)	20.7 µM (inactive)	25.6 µM (inactive)	29.6 µM (inactive)
C/C(=N\Nc1nc2ccccc2n1C)c1cc2ccccc2cn1	< 0.01 µM (active)	< 0.0111 µM (active)	0.153 µM (active)	0.0933 µM (active)	< 0.0128 µM (active)	< 0.0335 µM (active)	< 0.01 µM (active)	0.176 µM (active)	< 0.01 µM (active)	0.0448 µM (active)	< 0.0172 µM (active)	0.0423 µM (active)	< 0.0182 µM (active)	< 0.01 µM (active)	0.229 µM (active)	0.0286 µM (active)	< 0.01 µM (active)	1.14 µM (inactive)	< 0.0169 µM (active)	< 0.0447 µM (active)
CC1(C)OC(=O)N(c2ccccc2)C12C=Cc1cc([N+](=O)[O-])cc([N+](=O)[O-])c1O2 (stereo not given)	> 100 µM (inactive)	91.8 µM (inactive)	97.9 µM (inactive)	59.8 µM (inactive)	> 100 µM (inactive)	61.5 µM (inactive)	> 100 µM (inactive)	> 100 µM (inactive)	> 100 µM (inactive)	> 100 µM (inactive)	> 100 µM (inactive)	92 µM (inactive)	> 100 µM (inactive)	> 100 µM (inactive)	> 100 µM (inactive)	> 100 µM (inactive)	> 100 µM (inactive)	66.5 µM (inactive)	> 100 µM (inactive)	> 100 µM (inactive)
Cc1ccc(NC(c2ccccc2)c2ccc3cccnc3c2O)cc1 (stereo not given)	4.68 µM (inactive)	3.47 µM (inactive)	4.97 µM (inactive)	9.02 µM (inactive)	4.09 µM (inactive)	4.69 µM (inactive)	3.14 µM (inactive)	4.1 µM (inactive)	2.37 µM (inactive)	2.7 µM (inactive)	5.79 µM (inactive)	3.85 µM (inactive)	2.64 µM (inactive)	2.61 µM (inactive)	4.4 µM (inactive)	3.97 µM (inactive)	4.63 µM (inactive)	6.37 µM (inactive)	2.44 µM (inactive)	7.23 µM (inactive)
COc1ccc(NC(C(N)=O)c2cc3cc(Br)ccc3nc2Cl)cc1 (stereo not given)	41 µM (inactive)	28.1 µM (inactive)	59.8 µM (inactive)	> 100 µM (inactive)	25.5 µM (inactive)	42 µM (inactive)	32.4 µM (inactive)	28.1 µM (inactive)	20.2 µM (inactive)	> 100 µM (inactive)	> 100 µM (inactive)	68.4 µM (inactive)	57.1 µM (inactive)	30.4 µM (inactive)	38.3 µM (inactive)	53.5 µM (inactive)	> 100 µM (inactive)	81.5 µM (inactive)	15.6 µM (inactive)	58.1 µM (inactive)
